Measurements reported in US10988459B2 (priority 2015, dated 2021).

biological target: human RIP1 kinase domain (2-375) (Homo sapiens (Human), UniProt Q13546); assay: biochemical; assay type: biochemical; details: Table 1; apparent Ki (Morrison tight-binding fit); 50 nM RIP1 kinase domain, 50 uM ATP, 2 hours incubation; read-out: RIP1 Ki
Summary of the method: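 50 nM purified kinase domain from baculovirus-infected insect cells, incubated 2 h with compound in 50 mM Hepes pH 7.5, 30 mM MgCl2, 1 mM DTT, 50 uM ATP, 0.002% Brij-35, 0.5% DMSO. ADP formation read by Transcreener FP at 633 nm excitation. Ki^app fitted with the Morrison tight-binding equation.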

Chain of human RIP1 kinase domain (2-375) (Q13546 2-375): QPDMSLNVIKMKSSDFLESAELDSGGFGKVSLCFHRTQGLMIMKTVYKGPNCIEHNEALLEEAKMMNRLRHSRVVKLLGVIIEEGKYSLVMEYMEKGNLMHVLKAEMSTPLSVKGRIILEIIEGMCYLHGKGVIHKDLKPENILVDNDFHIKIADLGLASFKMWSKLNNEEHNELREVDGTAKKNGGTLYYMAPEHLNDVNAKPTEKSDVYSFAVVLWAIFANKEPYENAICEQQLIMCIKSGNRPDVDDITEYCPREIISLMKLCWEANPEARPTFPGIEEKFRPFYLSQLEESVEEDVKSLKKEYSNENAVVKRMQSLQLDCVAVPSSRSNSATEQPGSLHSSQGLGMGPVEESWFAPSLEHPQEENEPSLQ

Structure (SMILES)	Ki [nM]
CN1C(=O)C(NC(=O)c2nnc(Cc3ccccc3)[nH]2)CCn2nc(C3CC3)cc21 (stereo not drawn) [Example 29, 5-benzyl-N-(2-cyclopropyl-4-methyl-5-oxo-7,8-dihydro-6H-pyrazolo[1,5-a][1,3]diazepin-6-yl)-4H-1,2,4-triazole-3-carboxamide]	117
CN1C(=O)[C@@H](NC(=O)c2n[nH]c3ccc(Cl)cc23)COc2ccccc21 [Example 78, (S)-5-chloro-N-(5-methyl-4-oxo-2,3,4,5-tetrahydrobenzo[b][1,4]oxazepin-3-yl)-1H-indazole-3-carboxamide]	21
CN1C(=O)[C@@H](NC(=O)c2cc3c(cn2)COC3(C)C)COc2ccccc21 [Example 22, (S)-1,1-dimethyl-N-(5-methyl-4-oxo-2,3,4,5-tetrahydrobenzo[b][1,4]oxazepin-3-yl)-1,3-dihydrofuro[3,4-c]pyridine-6-carboxamide]	898
CN1C(=O)[C@@H](NC(=O)c2nnc3ccc(C(F)(F)F)cn23)COc2ccccc21 [Example 82, (S)-N-(5-methyl-4-oxo-2,3,4,5-tetrahydrobenzo[b][1,4]oxazepin-3-yl)-6-(trifluoromethyl)-[1,2,4]triazolo[4,3-a]pyridine-3-carboxamide]	393

same assay, conditions: Table 5; apparent Ki (Morrison tight-binding fit); 50 nM RIP1 kinase domain, 50 uM ATP, 2 hours incubation; read-out: Ki

Structure (SMILES)	Ki [nM]
CN1C(=O)[C@@H](NC(=O)c2nc3n(n2)CCNC3C(F)(F)F)COc2ccccc21 (stereo partly drawn) [Example 731, N—((S)-5-methyl-4-oxo-2,3,4,5-tetrahydrobenzo[b][1,4]oxazepin-3-yl)-8-(trifluoromethyl)-5,6,7,8-tetrahydro-[1,2,4]triazolo[1,5-a]pyrazine-2-carboxamide]	300
CN1C(=O)[C@@H](NC(=O)c2cc3c(-c4ccccc4)cccn3n2)COc2ccccc21 [Example 713, 4-phenyl-N-[(3S)-5-methyl-4-oxo-2,3-dihydro-1,5-benzoxazepin-3-yl]pyrazolo[1,5-a]pyridine-2-carboxamide]	5

Second part, the compound after the results:

Ki [nM]	Structure (SMILES)
530	CN1C(=O)[C@@H](NC(=O)c2ncn(Cc3ccccc3)n2)CCn2nc(Cn3ccnc3)cc21 [Example 707, (S)-1-benzyl-N-[2-(imidazol-1-ylmethyl)-4-methyl-5-oxo-7,8-dihydro-6H-pyrazolo[1,5-a][1, 3]diazepin-6-yl]-1,2,4-triazole-3-carboxamide]
36	CN1C(=O)[C@@H](NC(=O)c2ncn(Cc3ccccc3)n2)CCn2nc(CCCN3CCC(F)(F)C3)cc21 [Example 739, 1-benzyl-N-[(6S)-2-[3-(3,3-difluoropyrrolidin-1-yl)propyl]-4-methyl-5-oxo-7,8-dihydro-6H-pyrazolo[1,5-a][1,3]diazepin-6-yl]-1,2,4-triazole-3-carboxamide]
182	CN1C(=O)[C@@H](NC(=O)c2ncn(Cc3ccccc3F)n2)CCn2nc(CCN3CC4CC3CO4)cc21 (stereo partly drawn) [Example 762]
168	COC1CN(CCc2cc3n(n2)CC[C@H](NC(=O)c2ncn(Cc4ccccc4)n2)C(=O)N3C)C1 [Example 757]
116	CN1C(=O)[C@@H](NC(=O)c2ncn(Cc3ccccc3)n2)CCn2nc(CCN3CCOCC3)cc21 [Example 752, 1-benzyl-N-[(6S)-4-methyl-2-(2-morpholinoethyl)-5-oxo-7,8-dihydro-6H-pyrazolo[1,5-a][1,3]diazepin-6-yl]-1,2,4-triazole-3-carboxamide]

same assay, conditions: human RIP1 kinase domain (2-375), 50 uM ATP, 2 hours incubation, Transcreener ADP assay; read-out: RIP1 Ki

Structure (SMILES)	Ki [nM]
CN1C(=O)[C@@H](NC(=O)c2nnn3c2C[C@@H](C(F)(F)F)CC3)COc2ccccc21 [Example 150, (S)-N-((S)-5-methyl-4-oxo-2,3,4,5-tetrahydrobenzo[b][1,4]oxazepin-3-yl)-5-(trifluoromethyl)-4,5,6,7-tetrahydro-[1,2,3]triazolo[1,5-a]pyridine-3-carboxamide]	125
CN1C(=O)[C@@H](NC(=O)c2ccn(Cc3ccc(F)c(F)c3)n2)COc2c1cnn2C [Example 182, (S)-1-(3,4-difluorobenzyl)-N-(1,4-dimethyl-5-oxo-4,5,6,7-tetrahydro-1H-pyrazolo[3,4-b][1,4]oxazepin-6-yl)-1H-pyrazole-3-carboxamide]	2300
CN1C(=O)[C@@H](NC(=O)c2cc3c(cn2)cnn3C2CCOC2)COc2ccccc21 (stereo partly drawn) [Example 128, N—((S)-5-methyl-4-oxo-2,3,4,5-tetrahydrobenzo[b][1,4]oxazepin-3-yl)-1-(tetrahydrofuran-3-yl)-1H-pyrazolo[4,3-c]pyridine-6-carboxamide]	61.4

More lines, now with the values ahead:

Ki [nM]	Structure (SMILES)
38.2	CN1C(=O)[C@@H](NC(=O)c2ncn(Cc3ccccc3)n2)CCCn2nccc21 [Example 155, (S)-1-benzyl-N-(4-methyl-5-oxo-4,5,6,7,8,9-hexahydropyrazolo[1,5-a][1,3]diazocin-6-yl)-1H-1,2,4-triazole-3-carboxamide]
301	CN1C(=O)[C@@H](NC(=O)c2cn(Cc3ccc(F)c(F)c3)cn2)CCn2nccc21 [Example 146, (S)-1-(3,4-difluorobenzyl)-N-(4-methyl-5-oxo-5,6,7,8-tetrahydro-4H-pyrazolo[1,5-a][1,3]diazepin-6-yl)-1H-imidazole-4-carboxamide]

same assay, conditions: human RIP1 kinase domain (2-375), Transcreener ADP assay, 50 uM ATP, 2 hours incubation; read-out: RIP1 Ki

Ki [nM]	Structure (SMILES)
557	CC[C@@]1(C)OCc2cnc(C(=O)NC3CCn4cncc4N(C)C3=O)cc21 (stereo partly drawn) [Example 294, (1R)-1-ethyl-1-methyl-N-(1-methyl-2-oxo-2,3,4,5-tetrahydro-1H-imidazo[1,5-a][1,3]diazepin-3-yl)-1,3-dihydrofuro[3,4-c]pyridine-6-carboxamide]
37.2	CCC1(C)OCc2cnc(C(=O)N[C@H]3COc4ccccc4N(C)C3=O)nc21 (stereo partly drawn) [Example 310, 7-ethyl-7-methyl-N—((S)-5-methyl-4-oxo-2,3,4,5-tetrahydrobenzo[b][1,4]oxazepin-3-yl)-5,7-dihydrofuro[3,4-d]pyrimidine-2-carboxamide]

same assay, conditions: tight-binding apparent inhibition constant; human RIP1 kinase domain (2-375) 50 nM, 50 uM ATP, 2 hours; read-out: Ki

Structure (SMILES)	Ki [nM]
CCC[C@H]1CCCc2nc(C(=O)N[C@H]3CCc4cc(F)cc(F)c4NC3=O)nn21 (single isomer, unassigned) [Example 435]	25.2
Cc1cc(F)c2c(c1)OC[C@H](NC(=O)c1nc3n(n1)[C@@H](C(C)C)CCC3)C(=O)N2 (single isomer, unassigned) [Example 438]	150
CN1C(=O)[C@@H](NC(=O)c2nnc(Cc3cccc(F)c3F)[nH]2)CCn2nc(C(F)(F)F)cc21 [Example 524]	72
CC(C)n1ncc2cnc(C(=O)N[C@H]3CCc4cc(F)cc(F)c4NC3=O)nc21 [Example 607, 1-isopropyl-N-[(3S)-7,9-difluoro-2-oxo-1,3,4,5-tetrahydro-1-benzazepin-3-yl]pyrazolo[3,4-d]pyrimidine-6-carboxamide]	28
CN1C(=O)[C@@H](NC(=O)c2nc3n(n2)[C@@H](c2ccccc2)CC3)CCn2nccc21 (single isomer, unassigned) [Example 624]	20
CN1C(=O)[C@@H](NC(=O)c2nccc(C3(O)CCC3)n2)COc2ccccc21 [Example 537, 4-(1-hydroxycyclobutyl)-N-[(3S)-5-methyl-4-oxo-2,3-dihydro-1,5-benzoxazepin-3-yl]pyrimidine-2-carboxamide]	2100
CN1C(=O)[C@@H](NC(=O)c2ncn(C[C@H]3C[C@H](C(F)(F)F)C3)n2)CCn2nccc21 [Example 494]	110
CC[C@H]1CCc2nc(C(=O)N[C@H]3COc4ccccc4N(C)C3=O)nn21 (single isomer, unassigned) [Example 358]	9
CN1C(=O)[C@@H](NC(=O)c2nnc(Cc3cccc(F)c3F)[nH]2)CCn2nc(C3CC3)cc21 [Example 514, 5-[(2,3-difluorophenyl)methyl]-N-(6 S)-2-cyclopropyl-4-methyl-5-oxo-7,8-dihydro-6H-pyrazolo[1,5-a][1,3]diazepin-6-yl-4H-1,2,4-triazole-3-carboxamide]	17

More lines, now with the values ahead:

Ki [nM]	Structure (SMILES)
410	Cc1cc2n(n1)CC[C@H](NC(=O)c1nc3n(n1)CCOC31CCCC1)C(=O)N2C [Example 567, N-[(6S)-2,4-dimethyl-5-oxo-7,8-dihydro-6H-pyrazolo[1,5-a][1,3]diazepin-6-yl]spiro[5,6-dihydro-[1,2,4]triazolo[5,1-c][1,4]oxazine-8,1′-cyclopentane]-2-carboxamide]
27	CC[C@H]1C[C@@H](Cn2cnc(C(=O)N[C@H]3CCn4nccc4N(C)C3=O)n2)C1 [Example 502, N—((S)-4-methyl-5-oxo-5,6,7,8-tetrahydro-4H-pyrazolo[1,5-a][1,3]diazepin-6-yl)-1-(((1R,3R)-3-ethylcyclobutyl)methyl)-1H-1,2,4-triazole-3-carboxamide]
19	CN1C(=O)[C@@H](NC(=O)c2ncn(Cc3cc(F)ccc3F)n2)CCn2ccnc21 [Example 506, 1-[(2,5-difluorophenyl)methyl]-N-[(7S)-9-methyl-8-oxo-6,7-dihydro-5H-imidazo[1,2-a][1,3]diazepin-7-yl]-1,2,4-triazole-3-carboxamide]
7.8	Cc1cc2n(n1)CC[C@H](NC(=O)c1ncn(Cc3ccc(Cl)cc3Cl)n1)C(=O)N2C [Example 473, 1-[(2,4-dichlorophenyl)methyl]-N-[(6S)-2,4-dimethyl-5-oxo-7,8-dihydro-6H-pyrazolo[1,5-a][1,3]diazepin-6-yl]-1,2,4-triazole-3-carboxamide]
41	CCc1cc2n(n1)CCC(NC(=O)c1ncn(Cc3ccccc3)n1)C(=O)N2C (stereo not drawn) [Example 460, 1-Benzyl-N-(2-ethyl-4-methyl-5-oxo-5,6,7,8-tetrahydro-4H-pyrazolo[1,5-a][1,3]diazepin-6-yl)-1H-1,2,4-triazole-3-carboxamide]
4.8	CN1C(=O)[C@@H](NC(=O)c2ncn(Cc3ccccc3Cl)n2)CCn2nc(C(F)(F)F)cc21 [Example 528]
